The values that follow come from patent US20210301349A1, “COMPOSITIONS AND METHODS FOR TREATING A TUMOR SUPPRESSOR DEFICIENT CANCER” (BETH ISRAEL DEACONESS MEDICAL CENTER, INC., priority 2016, published 2021).

The subject of one experiment is NFκB signaling. The experiment can be described thus: Western blot and expression analysis of Pten^pc−/−; Zbtb7a^pc−/− tumors treated with CXCR2 antagonist. The class given is in vivo, mouse. The settings on record: versus vehicle. As for the experimental part:
(§1) Mice were allocated at random to experimental groups and studies were performed in an unblended manner. For treatment with the CXCR2 antagonist, SB225002 (Cayman Chemical #13336) was dissolved in DMSO (10 mg/ml) and diluted in vehicle (0.9% NaCl, 0.3% Tween 80) for in vivo administration. Mice (4 months of age) were treated daily for 10 days by intraperitoneal injection (5 mg/kg) and prostate tumor tissue (anterior lobes) was subjected to Flow Cytometry and histological analysis. For MRI analysis, mice (4 months of age) were treated daily for 21 days (Pten^pc−/−; Zbtb7a^pc−/−), for 14 days (Pten^pc−/−; Trp53^pc−/−) or for 14 days (Pten^pc−/−; Pml^pc−/−) by intraperitoneal injection (5 mg/kg). […] Tumor volume quantification was performed by using VivoQuant and Image J software. […]
(§2) For western blotting, cell lysates were prepared by homogenizing tumor tissue with NP40 Buffer (Boston Bioproducts) supplemented with protease (Roche) and HALT phosphatase inhibitor cocktails (Thermo Scientific) and subsequently subjected to SDS-Gel separation (Invitrogen) and western blotting. […] Western blots were quantified using Image J software. […] Embedding and hematoxylin and eosin staining of sections were performed by the Histology Core at BIDMC and analyzed by a pathologist. […]

Experiment [1] concerns Pten^pc−/−; Zbtb7a^pc−/− tumors (anterior prostate lobes). In words: Histological analysis of treated Pten^pc−/−; Zbtb7a^pc−/− tumors. The class given is in vivo, mouse. As to conditions: Zbtb7a^pc−/− mice, 10 days of i.p. treatment, versus vehicle or control IgG. As for the experimental part: as §1, §2

Take `O=C(Nc1ccc([N+](=O)[O-])cc1O)Nc1ccccc1Br` [SB225002]: the “expression of CXCL5” value in the experiment on NFκB signaling (Pten^pc−/−, Zbtb7a^pc−/− prostate tumors) is recorded as “elevated expression of CXCL5”. In the experiment on NFκB signaling (western blot of Pten^pc−/−, Zbtb7a^pc−/− tumors), the “IκBα protein level (normalized with β-actin)” value is “increased IκBα protein levels”. The “tumor burden by histological analysis” value in experiment [1] is “reduced tumor burden”; in experiment [1] (listed as CXCR2 inhibitor) it was “significantly diminished tumor involvement”.
